In data set [1] the test system is P. falciparum. More on the design: method as in PMID 22096507. The following applies: Aotus model; cited from earlier work.
In data set [2] the test system is P. falciparum. The following applies: purine-rich environment of cultured red blood cells; cited from earlier work.
Data set [3] deals with TgPNPWT. The following applies: TgPNP WT, ref Chaudhary, et al. [18], cited from earlier work.
Data set [4] addresses T1, Pf V66I:V73I PNP (Plasmodium falciparum, UniProt Q8T9Z7, V66I/V73I).
T1 construct: made in house; host or cells: Escherichia coli Top 10
The data set can be described thus: Inhibition by immucillins (initial and slow onset). The data set is classed as biochemical. Conditions: initial. How it is done:
(§1) Kinetic assays were completed in 50 mM KH2PO4 at pH 7.4 measuring phosphorylysis of inosine or MTI by PNP in a coupled reaction with 60 milliunits/ml xanthine oxidase to convert hypoxanthine to uric acid. […] Assays were performed with excess substrate in the presence of inhibitors. Inhibition studies measured both initial (Ki) and slow onset inhibition (Ki*) for inhibitors. The initial onset inhibition was analyzed by using the following equation: ν ο = (k cat×S)/(K m(1+I/Ki)+S), ν ο is the steady state rate, k cat catalytic rate, S is substrate concentration, Km is Michealis constant for inosine, I is inhibitor concentration, and Ki is the equilibrium dissociation constant.

Data set [5] concerns the target T2, Pf V66I:V73I:Y160F PNP (Plasmodium falciparum, UniProt Q8T9Z7, V66I/V73I/Y160F).
T2 construct: made in house; host or cells: Escherichia coli Top 10
The data set can be described thus: Inhibition by immucillins (initial and slow onset). Conditions: initial. The data set is classed as biochemical. On the procedure: as §1

For data set [6], the target named is T3, Pf Tyr160Phe PNP (Plasmodium falciparum, UniProt Q8T9Z7, Y160F).
T3 construct: made in house; host or cells: Escherichia coli Top 10
T3 sequence (Q8T9Z7 whole entry Y160F): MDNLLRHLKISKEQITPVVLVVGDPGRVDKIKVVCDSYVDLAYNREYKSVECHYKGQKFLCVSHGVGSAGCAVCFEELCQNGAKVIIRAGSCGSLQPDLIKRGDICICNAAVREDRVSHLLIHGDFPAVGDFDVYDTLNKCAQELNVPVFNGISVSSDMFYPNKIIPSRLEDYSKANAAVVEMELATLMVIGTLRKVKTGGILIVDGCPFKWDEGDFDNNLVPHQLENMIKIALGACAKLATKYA
Briefly: Inhibition by immucillins (initial and slow onset). The data set is classed as biochemical. Conditions: initial. On the procedure:
as §1

In data set [7] the target is T4, Pf Val66Ile PNP (Plasmodium falciparum, UniProt Q8I3X4, V66I).
T4 construct: made in house; host or cells: Escherichia coli Top 10
T4 sequence (Q8I3X4 whole entry V66I): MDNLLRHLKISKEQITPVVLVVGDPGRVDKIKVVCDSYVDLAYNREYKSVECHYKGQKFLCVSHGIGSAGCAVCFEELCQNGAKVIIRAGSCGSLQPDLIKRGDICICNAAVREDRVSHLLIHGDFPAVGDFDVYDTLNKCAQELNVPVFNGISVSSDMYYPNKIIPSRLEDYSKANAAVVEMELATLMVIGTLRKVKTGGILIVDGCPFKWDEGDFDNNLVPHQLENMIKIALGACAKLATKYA
Briefly: Inhibition by immucillins (initial and slow onset). The data set is classed as biochemical. The following applies: slow onset. On the procedure:
as §1

In data set [8] the test system is PfPNP versus mammalian PNP. More on the design: method as in PMID 15576366. Conditions: cited from earlier work.
Data set [9] deals with TgPNPWT. The data set can be described thus: Inhibition by immucillins (literature values). It counts as biochemical, Toxoplasma gondii. The following applies: TgPNP versus PfPNP.
Data set [10] deals with the molecule itself. Briefly: SEC; Superose 12 gel filtration, 0.1 ml of 1 mg/ml loaded, 20 mM HEPES, 50 mM KCl, 5 mM KH2PO4, 0.1 mM DTT, pH 7.4, 0.5 ml/min; self-association (hexamer).
Data set [11] deals with the molecule itself. The data set can be described thus: crystal structure; V66I:V73I:Y160F PfPNP with ImmH and phosphate, 2.8 Å, space group I4(1)32, 2 molecules in the asymmetric unit; hexamer as a trimer of dimers.
Substrate in data set [12]: OC[C@H]1O[C@@H](n2cnc3c(O)ncnc32)[C@H](O)[C@@H]1O
Briefly: Substrate kinetics, xanthine oxidase coupled phosphorolysis assay. It counts as biochemical, Plasmodium falciparum. Conditions: other: wild type PfPNP, substrate = label, 50 mM KH2PO4 pH 7.4, mean ± SD. On the procedure: Kinetic assays were completed in 50 mM KH2PO4 at pH 7.4 measuring phosphorylysis of inosine or MTI by PNP in a coupled reaction with 60 milliunits/ml xanthine oxidase to convert hypoxanthine to uric acid. Formation of uric acid was measured at 293 nm wavelength (E293 = 12.9 mM^−1 cm^−1), [20]. In cases where activity for MTI was low, increased protein concentration (10 µg/ml) was used to check enzyme function. Assays were performed with excess substrate in the presence of inhibitors. Inhibition studies measured both initial (Ki) and slow onset inhibition (Ki*) for inhibitors. The initial onset inhibition was analyzed by using the following equation: ν ο = (k cat×S)/(K m(1+I/Ki)+S), ν ο is the steady state rate, k cat catalytic rate, S is substrate concentration, Km is Michealis constant for inosine, I is inhibitor concentration, and Ki is the equilibrium dissociation constant.

Where two headings read alike, the source gives them in different places. Marks after values point to notes of the source that are not given here.

As usually defined, the Ki is the equilibrium dissociation constant of an inhibitor or competing ligand from its target. What is called stoichiometry N is the number of molecules, sites or subunits per partner or assembly. Broadly, the Km is the concentration of substrate that gives half-maximal velocity. By kcat is commonly meant the maximal rate divided by the concentration of active sites. As usually defined, the kcat/Km is the second-order rate constant that governs catalysis at low substrate concentration.

T2 sequence (Q8T9Z7 whole entry V66I/V73I/Y160F): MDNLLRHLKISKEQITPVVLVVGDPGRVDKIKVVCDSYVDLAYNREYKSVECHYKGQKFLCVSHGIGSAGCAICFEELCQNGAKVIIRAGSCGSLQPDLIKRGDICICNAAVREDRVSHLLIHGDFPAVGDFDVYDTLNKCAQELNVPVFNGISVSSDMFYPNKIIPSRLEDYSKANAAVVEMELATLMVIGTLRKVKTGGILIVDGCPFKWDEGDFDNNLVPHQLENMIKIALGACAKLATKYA
T1 sequence (Q8T9Z7 whole entry V66I/V73I): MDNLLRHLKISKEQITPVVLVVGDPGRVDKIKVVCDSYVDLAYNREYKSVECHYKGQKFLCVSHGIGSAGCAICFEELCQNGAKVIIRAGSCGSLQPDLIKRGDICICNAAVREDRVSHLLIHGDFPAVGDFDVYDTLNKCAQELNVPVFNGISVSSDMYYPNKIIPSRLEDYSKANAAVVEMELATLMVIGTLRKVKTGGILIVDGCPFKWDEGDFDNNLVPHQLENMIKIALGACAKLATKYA

Regarding `Nc1nc2c(CN3C[C@H](CO)[C@@H](O)C3)c[nH]c2c(=O)[nH]1` [DADMe-Immucillin-G], the “efficacy against P. falciparum” value in [1] is “effective against P. falciparum in the Aotus model”.

Take `O=c1[nH]cnc2c([C@@H]3N[C@H](CO)[C@@H](O)[C@H]3O)c[nH]c12` [ImmH, Immucillin-H]: the “effect on P. falciparum” value in data set [2] was “causes P. falciparum cell death by purine starvation”. Besides, the inhibition constant Ki in data set [3] (initial) is 450 nM; in data set [3] (slow onset) it was 2 nM; in data set [4] it was 270 nM; in data set [5], 3.6 nM; in data set [6] it was 0.93 nM. The “Ki*” value in data set [7] is “(-) ^c”.

Take `CSC[C@H]1N[C@@H](c2c[nH]c3c(=O)[nH]cnc23)[C@H](O)[C@@H]1O` [MT-ImmH, 5′-methylthioimmucillin-H]: the “greater specificity for PfPNP versus mammalian PNP” value in [8] is listed as 100 fold. Also, the “less effective for TgPNP than for PfPNP (Ki*)” value in data set [9] is “more than 160 fold”. The inhibition constant Ki in data set [3] (initial) is 7100 nM; in data set [3] (slow onset) it was 290 nM.

B1: Plasmodium falciparum purine nucleoside phosphorylase (PfPNP), wild type (enzyme, Plasmodium falciparum (3D7 strain))
chain: DNLLRHLKISKEQITPVVLVVGDPGRVDKIKVVCDSYVDLAYNREYKSVECHYKGQKFLCVSHGVGSAGCAVCFEELCQNGAKVIIRAGSCGSLQPDLIKRGDICICNAAVREDRVSHLLIHGDFPAVGDFDVYDTLNKCAQELNVPVFNGISVSSDMYYPNKIIPSRLEDYSKANAAVVEMELATLMVIGTLRKVKTGGILIVDGCPFKWDEGDFDNNLVPHQLENMIKIALGACAKLATKYA
notes: purine nucleoside phosphorylase of P. falciparum 3D7; also called PfPNP WT; wild-type PfPNP; source: E. coli Top 10, purified (Ni-NTA); not shown: c-Myc, C-terminal, kept; His6, C-terminal, kept
Turning to B1, the “stoichiometry N” value in [10] amounted to 6.

B2: V66I:V73I:Y160F PfPNP (triple mutant Val66Ile:Val73Ile:Tyr160Phe) (enzyme)
chain: DNLLRHLKISKEQITPVVLVVGDPGRVDKIKVVCDSYVDLAYNREYKSVECHYKGQKFLCVSHGIGSAGCAICFEELCQNGAKVIIRAGSCGSLQPDLIKRGDICICNAAVREDRVSHLLIHGDFPAVGDFDVYDTLNKCAQELNVPVFNGISVSSDMFYPNKIIPSRLEDYSKANAAVVEMELATLMVIGTLRKVKTGGILIVDGCPFKWDEGDFDNNLVPHQLENMIKIALGACAKLATKYA
notes: also called Pf V66I:V73I:Y160F; triple PfPNP mutant; source: E. coli Top 10, purified (Ni-NTA; Superdex 200 for larger scale); not shown: c-Myc, C-terminal, kept; His6, C-terminal, kept
With B2, the “stoichiometry N” value in [11] is 6.

B3: PfPNP (wild type) (Plasmodium falciparum 3D7) (protein)
chain: MDNLLRHLKISKEQITPVVLVVGDPGRVDKIKVVCDSYVDLAYNREYKSVECHYKGQKFLCVSHGVGSAGCAVCFEELCQNGAKVIIRAGSCGSLQPDLIKRGDICICNAAVREDRVSHLLIHGDFPAVGDFDVYDTLNKCAQELNVPVFNGISVSSDMYYPNKIIPSRLEDYSKANAAVVEMELATLMVIGTLRKVKTGGILIVDGCPFKWDEGDFDNNLVPHQLENMIKIALGACAKLATKYA
notes: made in house; host or cells: Escherichia coli Top 10
Consider B3, for which, in [12], the Km amounted to 11 ± 5 µM, the kcat was found to be 1.7 ± 0.7 s⁻¹ and the kcat/Km came out at 150000 M⁻¹ s⁻¹.

The record behind these values is paper PMC3885546, “Structural Determinants of the 5′-Methylthioinosine Specificity of Plasmodium Purine Nucleoside Phosphorylase” (PLoS ONE, 2014).
